Results: patent publication US5707966A, “Antithrombotic agents” (Eli Lilly and Company, priority 1995, dated 1998)
Structures can show the parent of a compound that is named as a salt. Where two headings read alike, the source gives them in different places.

Experiments:
Type in all cases: biochemical
Human Thrombin = Human Thrombin (Homo sapiens, UniProt P00734); assay: Inhibition of amidase activity of thrombin (Kass)
factor Xa = target: T1, factor Xa (Homo sapiens, UniProt P00742); assay: Kass with factor Xa, chromogenic substrate
T1 construct: Human factors X, Xa, IXa, XIa, and XIIa are purchased; purchased Enzyme Research Laboratories, South Bend, Ind
T1 sequence (P00742 235-488 limits assumed): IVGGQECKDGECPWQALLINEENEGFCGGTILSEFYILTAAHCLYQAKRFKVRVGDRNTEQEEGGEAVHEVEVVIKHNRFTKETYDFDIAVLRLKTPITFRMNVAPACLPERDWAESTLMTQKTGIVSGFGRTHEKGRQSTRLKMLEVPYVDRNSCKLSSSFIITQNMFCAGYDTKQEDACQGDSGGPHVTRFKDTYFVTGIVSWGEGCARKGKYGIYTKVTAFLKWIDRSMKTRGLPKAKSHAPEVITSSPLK
T1 sequence (P00742 41-179 partner limits assumed): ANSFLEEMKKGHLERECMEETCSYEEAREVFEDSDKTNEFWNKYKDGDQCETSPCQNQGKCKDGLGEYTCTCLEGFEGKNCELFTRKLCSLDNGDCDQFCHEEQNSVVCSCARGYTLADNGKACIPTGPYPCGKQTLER
Method: (§1) By substantially following the procedures described above for human thrombin, and using other human blood coagulation system serine proteases and proteases of the fibrinolytic system with the appropriate chromogenic substrates, identified below, selectivity of the compounds of the present invention with respect to the coagulation factor serine proteases and with respect to the fibrinolytic system serine proteases are evaluated as well as their substantial lack of interference with serine proteases of the fibrinolytic system. Thrombin inhibitors preferably should spare fibrinolysis induced by urokinase, tissue plasminogen activator (t-PA) and streptokinase. This would be important to the therapeutic use of such agents as an adjunct to streptokinase, t-PA or urokinase thrombolytic therapy and to the use of such agents as an endogenous fibrinolysis-sparing (with respect to t-PA and urokinase) antithrombotic agent. In addition to the lack of interference with the amidase activity of the fibrinolytic proteases, such fibrinolytic system sparing can be studied by the use of human plasma clots and their lysis by the respective fibrinolytic plasminogen activators.
Human factors X, Xa, IXa, XIa, and XIIa are purchased from Enzyme Research Laboratories, South Bend, Ind.; human urokinase from Leo Pharmaceuticals, Denmark; and recombinant activated Protein C (aPC) is prepared at Eli Lilly and Co. substantially according to U.S. Patent No. 4,981,952. Chromogenic substrates: N-Benzoyl-Ile-Glu-Gly-Arg-p-nitroanilide (for factor Xa); N-Cbz-D-Arg-Gly-Arg-p-nitroanilide (for factor IXa assay as the factor Xa substrate); Pyroglutamyl-Pro-Arg-p-nitroanilide (for Factor XIa and for aPC); H-D-Pro-Phe-Arg-p-nitroanilide (for factor XIIa); and Pyroglutamyl-Gly-Arg-p-nitroanilide (for urokinase); are purchased from KabiVitrum, Stockholm, Sweden, or from Midwest Biotech, Fishers, Ind. Bovine trypsin is purchased from Worthington Biochemicals, Freehold, N.J., and human plasma kallikrein from Kabi Vitrum, Stockholm, Sweden. Chromogenic substrate H-D-Pro-Phe-Arg-p-nitroanilide for plasma kallikrein is purchased from Kabi Vitrum, Stockholm, Sweden. N-Benzoyl-Phe-Val-Arg-p-nitroanilide, the substrate for human thrombin and for trypsin, is synthesized according to procedures described above for the compounds of the present invention, using known methods of peptide coupling from commercially available reactants or purchased from Midwest Biotech, Fishers, Ind.

Bovine trypsin = target: T2, Bovine trypsin (Bos taurus, UniProt P00760); assay: Kass with trypsin, chromogenic substrate
T2 construct: Bovine trypsin is purchased; purchased Worthington Biochemicals, Freehold, N.J
T2 sequence (P00760 24-246): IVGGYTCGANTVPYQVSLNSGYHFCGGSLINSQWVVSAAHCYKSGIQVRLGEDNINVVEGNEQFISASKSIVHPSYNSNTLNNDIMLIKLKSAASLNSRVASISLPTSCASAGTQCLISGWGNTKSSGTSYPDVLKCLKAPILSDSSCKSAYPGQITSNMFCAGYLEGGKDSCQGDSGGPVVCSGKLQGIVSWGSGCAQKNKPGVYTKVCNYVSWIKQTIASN

Human plasmin = target: T3, Human plasmin (Homo sapiens, UniProt P00747); assay: Kass with plasmin, chromogenic substrate
T3 construct: Human plasmin is purchased; purchased Boehringer Mannheim, Indianapolis, Ind
T3 sequence (P00747 97-810): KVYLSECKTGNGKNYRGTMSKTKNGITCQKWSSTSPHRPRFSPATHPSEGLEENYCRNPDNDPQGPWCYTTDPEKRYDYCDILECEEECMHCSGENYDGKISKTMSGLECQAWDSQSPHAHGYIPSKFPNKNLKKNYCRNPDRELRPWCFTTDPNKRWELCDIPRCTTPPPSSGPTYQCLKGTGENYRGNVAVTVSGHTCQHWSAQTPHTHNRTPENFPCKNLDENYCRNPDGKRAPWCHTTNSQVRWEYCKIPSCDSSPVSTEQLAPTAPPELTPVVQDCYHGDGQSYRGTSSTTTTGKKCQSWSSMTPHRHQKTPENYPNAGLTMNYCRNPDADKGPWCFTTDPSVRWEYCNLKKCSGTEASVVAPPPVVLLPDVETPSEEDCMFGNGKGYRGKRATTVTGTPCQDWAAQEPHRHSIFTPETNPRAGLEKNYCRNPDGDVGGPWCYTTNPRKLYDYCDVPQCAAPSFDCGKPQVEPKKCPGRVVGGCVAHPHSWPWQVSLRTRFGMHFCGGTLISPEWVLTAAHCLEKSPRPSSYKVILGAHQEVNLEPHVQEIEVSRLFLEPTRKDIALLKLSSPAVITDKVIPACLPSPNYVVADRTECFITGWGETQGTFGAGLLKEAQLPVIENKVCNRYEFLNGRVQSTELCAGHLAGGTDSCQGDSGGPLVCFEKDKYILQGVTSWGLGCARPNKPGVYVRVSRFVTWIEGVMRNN
T3 sequence (P00747 97-580 partner limits assumed): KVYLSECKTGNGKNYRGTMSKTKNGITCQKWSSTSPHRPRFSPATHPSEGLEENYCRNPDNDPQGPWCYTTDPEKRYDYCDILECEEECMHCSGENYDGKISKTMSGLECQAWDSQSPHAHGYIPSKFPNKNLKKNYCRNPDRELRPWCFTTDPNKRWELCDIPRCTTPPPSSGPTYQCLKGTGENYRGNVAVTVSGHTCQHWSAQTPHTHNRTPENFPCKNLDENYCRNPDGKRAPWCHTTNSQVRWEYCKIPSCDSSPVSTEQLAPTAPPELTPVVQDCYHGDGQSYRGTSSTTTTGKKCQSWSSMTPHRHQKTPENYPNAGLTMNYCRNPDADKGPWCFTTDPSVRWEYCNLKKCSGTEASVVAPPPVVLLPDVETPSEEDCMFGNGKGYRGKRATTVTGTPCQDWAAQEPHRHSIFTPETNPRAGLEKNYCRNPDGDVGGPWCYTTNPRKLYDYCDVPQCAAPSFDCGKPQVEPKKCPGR
Method: as §1
(§2) Human plasmin is purchased from Boehringer Mannheim, Indianapolis, Ind.; nt-PA is purchased as single chain activity reference from American Diagnostica, Greenwich, Conn. modified-t-PA6 (mt-PA6) is prepared at Eli Lilly and Company by procedure known in the art (See, Burck, et al., J. Biol. Chem., 265, […] (1990). Plasmin chromogenic substrate H-D-Val-Leu-Lys-p-nitroanilide and tissue plasminogen activator (t-PA) substrate H-D-Ile-Pro-Arg-p-nitroanilide are purchased from Kabi Vitrum, Stockholm, Sweden.

t-PA = target: T4, t-PA (Homo sapiens, UniProt P00750); assay: Kass with t-PA, chromogenic substrate; conditions: substrate H-D-Ile-Pro-Arg-p-nitroanilide
T4 construct: purchased American Diagnostica, Greenwich, Conn
T4 sequence (P00750 36-562): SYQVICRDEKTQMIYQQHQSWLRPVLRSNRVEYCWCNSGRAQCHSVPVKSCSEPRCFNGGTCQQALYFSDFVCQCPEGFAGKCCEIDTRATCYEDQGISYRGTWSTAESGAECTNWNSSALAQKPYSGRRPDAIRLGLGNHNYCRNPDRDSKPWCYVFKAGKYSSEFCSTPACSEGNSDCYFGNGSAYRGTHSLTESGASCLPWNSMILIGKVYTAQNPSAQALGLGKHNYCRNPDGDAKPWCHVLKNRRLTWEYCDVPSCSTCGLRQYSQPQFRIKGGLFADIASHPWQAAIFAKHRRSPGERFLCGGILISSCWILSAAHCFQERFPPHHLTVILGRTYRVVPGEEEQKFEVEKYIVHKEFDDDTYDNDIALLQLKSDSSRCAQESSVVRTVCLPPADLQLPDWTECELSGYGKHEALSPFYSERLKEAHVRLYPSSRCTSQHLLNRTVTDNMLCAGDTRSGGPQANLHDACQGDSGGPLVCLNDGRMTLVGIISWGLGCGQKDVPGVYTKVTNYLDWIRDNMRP
Method: as §1, §2

Human plasma = Human plasma anticoagulation, thrombin time (TT); conditions: concentration required to double the thrombin time, linear extrapolation
How it was run: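 In plasma from human donors, spiked with a range of compound levels, an automated coagulometer recorded clot formation after thromboplastin (PT), Actin then calcium (APTT) or 10 NIH units/mL thrombin (TT); doubling concentrations were extrapolated linearly.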

[1] = mean over a range of concentrations, […]
[2] = substrate N-Benzoyl-Ile-Glu-Gly-Arg-p-nitroanilide
[3] = substrate N-Benzoyl-Phe-Val-Arg-p-nitroanilide
[4] = substrate H-D-Val-Leu-Lys-p-nitroanilide

Row | Compound | Kass Human Thrombin (Human Thrombin; [1]) | Kass Xa (factor Xa; [2]) | Kass Trypsin (Bovine trypsin; [3]) | Kass Plasmin (Human plasmin; [4]) | Kass t-PA (t-PA) | Human Plasma Anticoagulation 2× Clotting time TT (Human plasma) | Kass Human Thrombin (Human Thrombin) | Kass Xa (factor Xa) | Kass Trypsin (Bovine trypsin) | Kass Plasmin (Human plasmin)
1 | N=C(N)NC/C=C/CNC(=O)[C@@H]1CCCN1C(=O)[C@H](N)Cc1ccccc1 (relative stereo) [Example 8, D-Phe-Pro-NHCH2 -trans-CH=CHCH2 NHC(NH)NH2.HCl] | 5.3 × 10^6 (L/mole) | 0.00038 × 10^6 (L/mole) | 0.022 × 10^6 (L/mole) | 0.0008 × 10^6 (L/mole) | 0.0012 × 10^6 (L/mole) | 130 ng/mL |  |  |  | 
2 | NC[C@H]1CC[C@H](CNC(=O)[C@@H]2CCCN2C(=O)[C@H](N)Cc2ccccc2)CC1 (relative stereo) [Example 12, D-Phe-Pro-NHCH2 -trans-4-(aminomethyl)cyclohexane.HCl] | 0.44 × 10^6 (L/mole) | 0.000042 × 10^6 (L/mole) | 0.0022 × 10^6 (L/mole) | 0.00087 × 10^6 (L/mole) | 0.000042 × 10^6 (L/mole) | 1,700 ng/mL |  |  |  | 
3 | CCS(=O)(=O)N[C@H](CC1CCCCC1)C(=O)N1CCC[C@H]1C(=O)NCCCCNC(=N)N [Example 2, EtSO2 -D-Cha-Pro-Agm.HCl] | 4.4 × 10^6 (L/mole) | 0.0092 × 10^6 (L/mole) | 1.0 × 10^6 (L/mole) | 0.045 × 10^6 (L/mole) | 0.023 × 10^6 (L/mole) | 170 ng/mL |  |  |  | 
4 | CCOC(=O)N[C@H](Cc1ccccc1)C(=O)N1CCC[C@H]1C(=O)NCCCCNC(=N)N [Example 3, EtOCO-D-Phe-Pro-Agm.HCl] | 2.1 × 10^6 (L/mole) | 0.0021 × 10^6 (L/mole) | 0.24 × 10^6 (L/mole) | 0.0046 × 10^6 (L/mole) | 0.033 × 10^6 (L/mole) | 590 ng/mL |  |  |  | 
5 | N=C(N)NCCCCCCNC(=O)[C@@H]1CCCN1C(=O)[C@H](N)Cc1ccccc1 [Example 5, D-Phe-Pro-NH(CH2)6 NHC(NH)NH2.HCl] | 0.035 × 10^6 (L/mole) | 0.00039 × 10^6 (L/mole) | 0.00015 × 10^6 (L/mole) | 0.00022 × 10^6 (L/mole) | < 0.001 × 10^6 (L/mole) | 30,000 ng/mL |  |  |  | 
6 | N=C(N)NCCCCCNC(=O)[C@@H]1CCCN1C(=O)[C@H](N)Cc1ccccc1 [Example 6, D-Phe-Pro-NH(CH2)5 NHC(NH)NH2.HCl] |  |  |  |  | < 0.001 × 10^6 (L/mole) | 390 ng/mL | 2.3 | 0.00024 | 0.0016 | 0.00023
7 | N=C(N)NCCCNC(=O)[C@@H]1CCCN1C(=O)[C@H](N)Cc1ccccc1 [Example 7, D-Phe-Pro-NH(CH2)3 NHC(NH)NH2.HCl] | 1.9 × 10^6 (L/mole) | 0.0041 × 10^6 (L/mole) | 0.0081 × 10^6 (L/mole) | 0.00022 × 10^6 (L/mole) | 0.0037 × 10^6 (L/mole) | 490 ng/mL |  |  |  | 
8 | N=C(N)NCc1ccc(CNC(=O)[C@@H]2CCCN2C(=O)[C@H](N)Cc2ccccc2)cc1 [Example 9, D-Phe-Pro-p-NHCH2 --C6 H4 CH2 NHC(NH)NH2.2TFA] | 0.033 × 10^6 (L/mole) | 0.00058 × 10^6 (L/mole) | 0.00017 × 10^6 (L/mole) | < 0.001 × 10^6 (L/mole) | < 0.001 × 10^6 (L/mole) | > 91,000 ng/mL |  |  |  | 
